# Target: T1, Squalene synthase (Rattus norvegicus, UniProt Q02769)
# T1 sequence (Q02769 whole entry): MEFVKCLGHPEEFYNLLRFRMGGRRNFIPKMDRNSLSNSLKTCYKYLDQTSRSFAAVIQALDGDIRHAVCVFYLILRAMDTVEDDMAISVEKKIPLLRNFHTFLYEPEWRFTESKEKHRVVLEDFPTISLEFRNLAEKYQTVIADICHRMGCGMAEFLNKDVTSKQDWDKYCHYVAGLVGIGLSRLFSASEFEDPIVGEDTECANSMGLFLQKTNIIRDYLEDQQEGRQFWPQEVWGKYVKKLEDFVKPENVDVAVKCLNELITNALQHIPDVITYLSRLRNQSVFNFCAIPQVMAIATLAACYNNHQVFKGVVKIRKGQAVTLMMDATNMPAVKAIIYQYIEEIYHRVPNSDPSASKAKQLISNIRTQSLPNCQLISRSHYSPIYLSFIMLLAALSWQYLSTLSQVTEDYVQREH
# Assay: In vitro inhibitory concentration against squalene synthase from male rat liver microsomes
# Assay type: tissue-based
row,IC50,SMILES
1,39 nM,C=C(CC[C@]12O[C@H](C(=O)O)[C@@](O)(C(=O)O)[C@](C(=O)O)(O1)C(O)OC2O)[C@@H](OC(C)=O)[C@H](C)Cc1ccccc1 (stereo not given in full)
2,270 nM,C=C(CC[C@]1(C(N)=O)O[C@H](C(=O)O)[C@@](O)(C(=O)O)[C@](COC(C)=O)(C(=O)O)O1)[C@@H](OC(C)=O)[C@H](C)Cc1ccccc1
3,200 nM,C=C(CC[C@@]12O[C@H](C(=O)O)[C@@](O)(C(=O)O)[C@@](C(=O)O)(COC1=O)O2)[C@@H](OC(C)=O)[C@H](C)Cc1ccccc1
4,11 nM,C=C(CC[C@]1(C(N)=O)O[C@H](C(=O)O)[C@@](O)(C(=O)O)[C@](COC(=O)/C=C/[C@@H](C)C[C@@H](C)CC)(C(=O)O)O1)[C@@H](OC(C)=O)[C@H](C)Cc1ccccc1
5,57 nM,C=C(CC[C@@]12CC[C@@](C(=O)O)(O1)[C@](O)(C(=O)O)[C@@H](C(=O)O)O2)[C@@H](OC(C)=O)[C@H](C)Cc1ccccc1
